Experimental data published in PubChem BioAssay (NCI).
“And” between values parts separate entries of the source, which are not always exact repeats. Equal values may be shown once.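 Cells were grown in 96-well plates and exposed to each compound for 48 hours at five concentrations; endpoints were interpolated linearly between bracketing concentrations, or set to the highest concentration if not reached. The concentration for 50% growth inhibition is given as GI50. Definition used: TGI = concentration required for complete inhibition of growth.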

Legend:
Assay in all cases: NCI anticancer screen, dose series, 48 h
[1] = test system: A549 NSCLC
[2] = test system: KM12 colon
[3] = test system: SR leukemia
[4] = test system: SNB-75 CNS
[5] = test system: HOP-92 NSCLC
[6] = test system: SK-MEL-2 melanoma
[7] = test system: RXF 393 renal
[8] = test system: COLO 205 colon
[9] = test system: BT-549 breast
[10] = test system: SK-MEL-5 melanoma

COc1cccc(C2C(C#N)=C(N)Oc3cc(OCCCCCC[P+](c4ccccc4)(c4ccccc4)c4ccccc4)ccc32)c1 (configuration not stated)
GI50 [1]: 1530 nM | TGI [1]: 4.51 µM | GI50 [2]: 433 nM | TGI [2]: 1.58 µM | GI50 [3]: 360 nM | TGI [3]: 1.92 µM | GI50 [4]: 210 nM | TGI [4]: 2.11 µM | GI50 [5]: 230 nM | TGI [5]: 0.912 µM

CC(C)=CC(=O)OC1C2C(C)=CC(=O)C(O)C2(C)C2C3(O)OCC24C(CC(=O)OC14)C(C)C3O (configuration not stated)
GI50 [1]: 54.5 nM and 178 nM | TGI [1]: 0.598 µM and 1.55 µM and 2.22 µM | GI50 [6]: 25 nM | TGI [6]: 0.0723 µM and 0.0279 µM and 0.0695 µM | GI50 [7]: 33.9 nM | TGI [7]: 0.0732 µM and 0.131 µM | GI50 [2]: 20.9 nM | GI50 [8]: 117 nM | TGI [8]: 0.359 µM and 1.11 µM and 0.42 µM | GI50 [4]: 33.8 nM | TGI [4]: 0.0621 µM and 0.0711 µM and 0.062 µM | GI50 [5]: 20.7 nM | TGI [5]: 0.0465 µM and 0.0367 µM | TGI [9]: 0.00846 µM | GI50 [10]: 20 nM | TGI [10]: 0.01 µM and 0.0209 µM

C[C@@H]([C@H]1CC[C@@]2(C)[C@@H]3CC[C@@H]4C(=CC3=CC[C@]12C)CC[C@H](N(C)C)C4(C)C)N(C)C
TGI [7]: > 100 µM | TGI [2]: > 100 µM | TGI [3]: > 100 µM | TGI [8]: > 100 µM | TGI [5]: > 100 µM | TGI [10]: > 100 µM

CCC1OC2(C)CC(C#N)(C#N)C1(C#N)C(=N)O2 (configuration not stated)
TGI [1]: > 100 µM | TGI [6]: > 100 µM | TGI [7]: > 100 µM | TGI [2]: > 100 µM | TGI [8]: > 100 µM | TGI [4]: > 100 µM | TGI [5]: > 100 µM | TGI [9]: > 100 µM | TGI [10]: > 100 µM

CN(C)Cc1cc(/C=C/C(=O)c2ccc(Br)cc2)cc(CN(C)C)c1O
TGI [1]: > 100 µM | TGI [6]: 90.5 µM | TGI [7]: 74.5 µM | TGI [2]: 29.6 µM | TGI [8]: 30.1 µM | TGI [4]: 43.7 µM | TGI [9]: 34.4 µM | TGI [10]: 40 µM

O=c1cc(-c2ccccc2)oc2cc(OCCCCCCCCCCOc3ccc4c(=O)cc(-c5ccccc5)oc4c3)ccc12
TGI [1]: > 100 µM | TGI [6]: > 100 µM | TGI [2]: > 100 µM | TGI [3]: > 100 µM | TGI [8]: > 100 µM | TGI [4]: > 100 µM | TGI [5]: > 100 µM | TGI [10]: > 100 µM

C=CC(C)(C)/C(=C\CO[Si](C(C)C)(C(C)C)C(C)C)C(=O)N(C)c1ccccc1I
TGI [1]: 23.9 µM | TGI [7]: 24.5 µM | TGI [2]: > 100 µM | TGI [3]: 27.7 µM | TGI [8]: 31.5 µM | TGI [4]: 31.7 µM | TGI [5]: 22.2 µM | TGI [10]: 32.1 µM

Oc1c(NCn2nc(CCCCCCCCc3nn(CNc4ccc5ccccc5c4O)c(=S)o3)oc2=S)ccc2ccccc12
TGI [1]: > 100 µM | TGI [6]: > 100 µM | TGI [7]: > 100 µM | TGI [2]: > 100 µM | TGI [8]: > 100 µM | TGI [4]: > 100 µM | TGI [5]: > 100 µM | TGI [9]: > 100 µM | TGI [10]: > 100 µM

C/C(N=NS(=O)(=O)c1c(C)cc(C)cc1C)=C1\C=CC=CN1O
TGI [1]: > 100 µM | TGI [2]: > 100 µM | TGI [3]: > 100 µM | TGI [4]: > 100 µM | TGI [5]: > 100 µM | TGI [10]: > 100 µM

N/C(=N\N=C/c1c(O)cc(O)cc1O)NO
TGI [1]: > 100 µM | TGI [6]: > 100 µM | TGI [7]: > 100 µM | TGI [2]: > 100 µM | TGI [8]: > 100 µM | TGI [4]: 98.8 µM | TGI [5]: > 100 µM | TGI [10]: > 100 µM

CC1(C)CC(=O)C2=C(C1)NC(=S)C(C#N)C2c1ccccc1 (configuration not stated)
TGI [1]: > 100 µM | TGI [6]: > 100 µM | TGI [7]: > 100 µM | TGI [8]: > 100 µM | TGI [4]: > 100 µM | TGI [5]: > 100 µM | TGI [9]: > 100 µM | TGI [10]: > 100 µM

COc1ccc(NCn2nc(CCCCCCCCc3nn(CNc4ccc(OC)cc4)c(=S)o3)oc2=S)cc1
TGI [1]: > 100 µM | TGI [6]: > 100 µM | TGI [7]: > 100 µM | TGI [2]: > 100 µM | TGI [8]: > 100 µM | TGI [4]: > 100 µM | TGI [5]: > 100 µM | TGI [9]: > 100 µM | TGI [10]: > 100 µM

C=C1C(=O)OC2C[C@@]3(C)CCCC(=C)C3CC12 (some centres not stated)
TGI [1]: 27.7 µM | TGI [6]: 12.7 µM | TGI [7]: 10.5 µM | TGI [2]: 5.94 µM | TGI [3]: > 100 µM | TGI [8]: 6.85 µM | TGI [4]: 20.1 µM | TGI [5]: 14.6 µM | TGI [10]: 20.4 µM

CN1Cc2ccccc2C2(COc3ccccc3C2=O)C1 (configuration not stated)
TGI [1]: > 100 µM | TGI [6]: > 100 µM | TGI [7]: > 100 µM | TGI [3]: 87.8 µM | TGI [4]: > 100 µM | TGI [5]: 93.6 µM | TGI [10]: > 100 µM

CCOC(=O)c1cnc2n(c1=O)[C@H]1CCCC[C@@H]1N2
TGI [1]: > 100 µM | TGI [6]: > 100 µM | TGI [2]: > 100 µM | TGI [8]: > 100 µM | TGI [4]: > 100 µM | TGI [5]: > 100 µM | TGI [9]: > 100 µM | TGI [10]: > 100 µM

Cc1ccc(N2Cc3c(ccc4ccccc34)OP2(=S)N2CCCC2)cc1 (configuration not stated)
TGI [1]: > 100 µM | TGI [6]: > 100 µM | TGI [7]: > 100 µM | TGI [2]: > 100 µM | TGI [8]: > 100 µM | TGI [4]: > 100 µM | TGI [5]: > 100 µM | TGI [10]: > 100 µM

O=C(CCC(NC(=O)OCc1ccccc1)C(=O)OCc1ccccc1)Nc1cccc(OCc2ccccc2)c1 (configuration not stated)
TGI [1]: > 100 µM | TGI [7]: 46.8 µM | TGI [2]: > 100 µM | TGI [3]: 65.5 µM | TGI [8]: 31.9 µM | TGI [4]: > 100 µM | TGI [5]: 75 µM

O=Cn1c2ccccc2c2ccccc21
TGI [1]: > 100 µM | TGI [6]: > 100 µM | TGI [7]: > 100 µM | TGI [2]: > 100 µM | TGI [3]: > 100 µM | TGI [8]: > 100 µM | TGI [5]: > 100 µM | TGI [10]: > 100 µM
